The values that follow come from publication PMC7508628, “Targeting the Respiratory Syncytial Virus N^0-P Complex with Constrained α-Helical Peptides in Cells and Mice” (Antimicrobial Agents and Chemotherapy, 2020).

One series in a line: circular dichroism. Conditions: 10 mM phosphate; pH 7.5; 25 °C; 50 uM. (Circular dichroism is the unequal absorption of left and right circularly polarised light.)
Series [1] addresses monomeric N protein (N^mono), recombinant N^K170A/R185A (Human respiratory syncytial virus A, UniProt P03418, K170A/R185A). Description: Fluorescence polarization competition assay: displacement of FAM–P(1–40) from monomeric N. Conditions: FP competition with FAM–P(1–40) probe. It is filed as binding.
Series [2] is described as follows: Circular dichroism spectroscopy, α-helical content. It is filed as physicochemical. Conditions: CD, 10 mM phosphate buffer pH 7.5, 50 μM peptide, 25°C, calculated from ellipticity at 222 nm; average of three measurements. The protocol: The α-helical stabilization appeared to be higher for the i, i + 7 staples overall.
The circular dichroism spectra were acquired on a Chirascan spectropolarimeter. The samples were prepared in 10 mM phosphate buffer, pH 7.5, at a peptide concentration of 50 μM. Data were recorded at 25°C by step scan from 180 nm to 260 nm in a 0.5-mm-pathlength quartz cell using 0.2-nm-wavelength increments, a 1-nm bandwidth, and a response time of 1 s. Each spectrum was an average of three measurements and was subtracted from the buffer baseline. The data were converted to per residue molar ellipticity units (θ; in degrees · square centimeters · decimoles^−1 · number of residues^−1) and smoothed using Igor Pro software. Percent helicity was calculated as follows: (100 × CD222)/(C × N × {40,000 × [1 − (2.5/N)]}), where CD222 is the molar ellipticity (θ) at 222 nm (in millidegrees), N is the number of amino acids in the peptide, and C is the peptide molar concentration (in moles per liter).

Another series has as its system rHRSV-mCherry. Conditions: read-out: EC50 (half-maximal response inhibitory concentration), inhibition of RSV infection; HEp-2 cells, MOI 0.2, peptides added after 2 h infection, mCherry fluorescence at 48 h postinfection; duplicates.
For another series, the system named is HEp-2 cells. Description: HEp-2 cell viability (CellTiter-Glo luminescent cell viability assay). Conditions: peptide alone at 50 μM; duplicates. (In ATP-based viability assays light output follows the ATP content of the culture.)

Where a SMILES comes first, the peptide text is derived from it. Bridges are numbered along the chain shown (N, C = ends). [ ]: non-standard residue; d: D form. R8 = C=CCCCCCC[C@@](C)(N)C(=O)O; R5 = C=CCCC[C@@](C)(N)C(=O)O; S5 = C=CCCC[C@](C)(N)C(=O)O

Chain of monomeric N protein (N^mono), recombinant N^K170A/R185A (P03418 whole entry K170A/R185A, looked up): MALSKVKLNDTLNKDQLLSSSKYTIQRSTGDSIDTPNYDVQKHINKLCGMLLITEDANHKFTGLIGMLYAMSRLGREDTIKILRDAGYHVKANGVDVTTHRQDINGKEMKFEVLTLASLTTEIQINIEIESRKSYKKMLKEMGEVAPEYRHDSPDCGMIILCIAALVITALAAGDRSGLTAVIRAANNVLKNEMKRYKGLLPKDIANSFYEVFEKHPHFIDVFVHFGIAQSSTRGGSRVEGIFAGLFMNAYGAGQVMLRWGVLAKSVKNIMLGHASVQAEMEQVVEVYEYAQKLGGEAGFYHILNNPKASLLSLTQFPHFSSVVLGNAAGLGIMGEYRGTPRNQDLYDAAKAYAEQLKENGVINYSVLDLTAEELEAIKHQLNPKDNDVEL
Method for HEp-2 cells: (B) HEp-2 cell viability upon treatment with peptides alone at peptide concentrations of 50, 25, and 12.5 μM. Error bars are standard deviations from duplicates. Data are representative of those from two independent experiments.
Cytotoxicity assays were done with the CellTiter-Glo luminescent cell viability assay (Promega). Each experiment was performed in duplicate and repeated at least twice.

In “circular dichroism”, `CC[C@H](C)[C@H](NC(=O)[C@H](CO)NC(=O)[C@H](CCC(=O)O)NC(=O)[C@H](CC(C)C)NC(=O)[C@H](Cc1ccccc1)NC(=O)[C@H](CCCCN)NC(=O)[C@]1(C)CCCC=CCCC[C@@](C)(NC(=O)[C@H](CC(N)=O)NC(=O)[C@H](C)NC(=O)[C@H](CC(=O)O)NC(=O)[C@H](CCC(=O)O)NC(C)=O)C(=O)N[C@@H](CCCCN)C(=O)N[C@@H](C)C(=O)N1)C(=O)N[C@@H](CCCCN)C(=O)NCC(=O)N[C@@H](CCCCN)C(=O)N[C@@H](Cc1ccccc1)C(=O)N[C@@H](C)C(=O)N[C@@H](CO)C(N)=O` [1a] (Ac-EDAN[R5]KA[S5]KFLESIKGKFAS-NH2; staple 5-8) returned a helicity of 5.5%. Besides, in series [1], the “Competitive binding to N^mono (in words)” value was “detrimental to the binding”. In addition, the “% helicity” value in series [2] is reported as 5.5%.

Regarding `CC(=O)N[C@@H](CCC(=O)O)C(=O)N[C@@H](CC(=O)O)C(=O)N[C@@H](C)C(=O)N[C@@H](CC(N)=O)C(=O)N[C@@H](CC(N)=O)C(=O)N[C@@H](CCCCN)C(=O)N[C@@H](C)C(=O)N[C@H](C(=O)N[C@@H](CCCCN)C(=O)N[C@@H](Cc1ccccc1)C(=O)N[C@]1(C)CCCC=CCCC[C@@](C)(C(=O)N[C@@H](CCCCN)C(=O)NCC(=O)N[C@@H](CCCCN)C(=O)N[C@@H](Cc2ccccc2)C(=O)N[C@@H](C)C(=O)N[C@@H](CO)C(N)=O)NC(=O)[C@H](CO)NC(=O)[C@H](CCC(=O)O)NC1=O)[C@@H](C)O` [1d] (Ac-EDANNKATKF[R5]ES[S5]KGKFAS-NH2; staple 11-14), the helicity in “circular dichroism” was 24.2%. Moreover, the “Competitive binding to N^mono (in words)” value in series [1] is recorded as “no competition could be observed”. In addition, the “% helicity” value in series [2] was 24.2%.

In “circular dichroism”, `CC[C@H](C)[C@H](NC(=O)[C@H](CO)NC(=O)[C@H](CCC(=O)O)NC(=O)[C@H](CC(C)C)NC(=O)[C@H](Cc1ccccc1)NC(=O)[C@H](CCCCN)NC(=O)[C@@H](NC(=O)[C@H](C)NC(=O)[C@H](CCCCN)NC(=O)[C@H](CC(N)=O)NC(=O)[C@H](CC(N)=O)NC(=O)[C@H](C)NC(=O)[C@H](CC(=O)O)NC(=O)[C@H](CCC(=O)O)NC(C)=O)[C@@H](C)O)C(=O)N[C@@H](CCCCN)C(=O)NCC(=O)N[C@]1(C)CCCC=CCCC[C@@](C)(C(N)=O)NC(=O)[C@H](C)NC(=O)[C@H](Cc2ccccc2)NC1=O` [1g] (Ac-EDANNKATKFLESIKG[R5]FA[S5]-NH2; staple 17-20) registered a helicity of 25.5%. Moreover, the “Competitive binding to N^mono (in words)” value in series [1] is “detrimental to the binding”. The “% helicity” value in series [2] is on record as 25.5%.

In the case of `CC(=O)N[C@@H](CCC(=O)O)C(=O)N[C@@H](CC(=O)O)C(=O)N[C@@H](C)C(=O)N[C@@H](CC(N)=O)C(=O)N[C@@H](CC(N)=O)C(=O)N[C@@H](CCCCN)C(=O)N[C@@H](C)C(=O)N[C@H](C(=O)N[C@@H](CCCCN)C(=O)N[C@@]1(C)CCCC=CCCC[C@@](C)(C(=O)N[C@@H](CCCCN)C(=O)NCC(=O)N[C@@H](CCCCN)C(=O)N[C@@H](Cc2ccccc2)C(=O)N[C@@H](C)C(=O)N[C@@H](CO)C(N)=O)NC(=O)[C@H](CO)NC(=O)[C@H](CCC(=O)O)NC(=O)[C@H](CC(C)C)NC1=O)[C@@H](C)O` [2d] (Ac-EDANNKATK[S5]LES[S5]KGKFAS-NH2; staple 10-14), in the series “circular dichroism”, the helicity came out at 10.1%. In addition, the “Competitive binding to N^mono (in words)” value in series [1] was “no competition could be observed”. Besides, the “% helicity” value in series [2] was 10.1%.

Regarding `CC[C@H](C)[C@H](NC(=O)[C@H](CO)NC(=O)[C@]1(C)CCCC=CCCCCCC[C@@](C)(NC(=O)[C@H](CC(N)=O)NC(=O)[C@H](C)NC(=O)[C@H](CC(=O)O)NC(=O)[C@H](CCC(=O)O)NC(=O)CNC(=O)[C@H](Cc2c[nH]cn2)NC(=O)[C@H](Cc2ccccc2)NC(=O)[C@H](CCC(=O)O)NC(C)=O)C(=O)N[C@@H](CCCCN)C(=O)N[C@@H](C)C(=O)N[C@@H]([C@@H](C)O)C(=O)N[C@@H](CCCCN)C(=O)N[C@@H](Cc2ccccc2)C(=O)N[C@@H](CC(C)C)C(=O)N1)C(=O)N[C@@H](CCCCN)C(=O)N[C@]1(C)CCCC=CCCC[C@@](C)(C(=O)N[C@@H](CO)C(N)=O)NC(=O)[C@H](Cc2ccccc2)NC(=O)[C@H](CCCCN)NC1=O` [3a1f] (Ac-EFHGEDAN[R8]KATKFL[S5]SIK[R5]KF[S5]S-NH2; staple 9-16, 20-23), in the series on rHRSV-mCherry, the EC50 worked out at 25.3 ± 17.9 µM. For the same compound, in series [2], the “% helicity” value is given as 37.7%.

For `CC[C@H](C)[C@H](NC(=O)[C@]1(C)CCCC=CCCCCCC[C@@](C)(NC(=O)[C@H](CC(N)=O)NC(=O)[C@H](CC(N)=O)NC(=O)[C@H](C)NC(=O)[C@H](CC(=O)O)NC(=O)[C@H](CCC(=O)O)NC(=O)CNC(=O)[C@H](Cc2c[nH]cn2)NC(=O)[C@H](Cc2ccccc2)NC(=O)[C@H](CCC(=O)O)NC(C)=O)C(=O)N[C@@H](C)C(=O)N[C@@H]([C@@H](C)O)C(=O)N[C@@H](CCCCN)C(=O)N[C@@H](Cc2ccccc2)C(=O)N[C@@H](CC(C)C)C(=O)N[C@@H](CCC(=O)O)C(=O)N1)C(=O)N[C@@H](CCCCN)C(=O)N[C@]1(C)CCCC=CCCC[C@@](C)(C(=O)N[C@@H](CO)C(N)=O)NC(=O)[C@H](Cc2ccccc2)NC(=O)[C@H](CCCCN)NC1=O` [3b1f] (Ac-EFHGEDANN[R8]ATKFLE[S5]IK[R5]KF[S5]S-NH2; staple 10-17, 20-23), the EC50 in the series with rHRSV-mCherry was above 100 µM. In series [2], the “% helicity” value was 46.6%.

On to `CC[C@H](C)[C@H](NC(=O)[C@]1(C)CCCC=CCCCCCC[C@@](C)(NC(=O)[C@H](CC(N)=O)NC(=O)[C@H](CC(N)=O)NC(=O)[C@H](C)NC(=O)[C@]2(C)CCCC=CCCC[C@@](C)(NC(=O)[C@H](Cc3ccccc3)NC(=O)[C@H](CCC(=O)O)NC(C)=O)C(=O)NCC(=O)N[C@@H](CCC(=O)O)C(=O)N2)C(=O)N[C@@H](C)C(=O)N[C@@H]([C@@H](C)O)C(=O)N[C@@H](CCCCN)C(=O)N[C@@H](Cc2ccccc2)C(=O)N[C@@H](CC(C)C)C(=O)N[C@@H](CCC(=O)O)C(=O)N1)C(=O)N[C@@H](CCCCN)C(=O)NCC(=O)N[C@@H](CCCCN)C(=O)N[C@@H](Cc1ccccc1)C(=O)N[C@@H](C)C(=O)N[C@@H](CO)C(N)=O` [4a3b] (Ac-EF[R5]GE[S5]ANN[R8]ATKFLE[S5]IKGKFAS-NH2; staple 3-6, 10-17), for which the EC50 in the series with rHRSV-mCherry came out at 14.6 ± 13.9 µM. The “Competitive binding to N^mono (in words)” value in series [1] was “inactive”. In addition, the “% helicity” value in series [2] is given as 73.2%.

In the case of `CC[C@H](C)[C@H](NC(=O)[C@]1(C)CCCC=CCCCCCC[C@@](C)(NC(=O)[C@H](CC(N)=O)NC(=O)[C@H](CC(N)=O)NC(=O)[C@H](C)NC(=O)[C@]2(C)CCCC=CCCC[C@](C)(NC(=O)[C@H](CCC(=O)O)NC(C)=O)C(=O)N[C@@H](Cc3c[nH]cn3)C(=O)NCC(=O)N[C@@H](CCC(=O)O)C(=O)N2)C(=O)N[C@@H](C)C(=O)N[C@@H]([C@@H](C)O)C(=O)N[C@@H](CCCCN)C(=O)N[C@@H](Cc2ccccc2)C(=O)N[C@@H](CC(C)C)C(=O)N[C@@H](CCC(=O)O)C(=O)N1)C(=O)N[C@@H](CCCCN)C(=O)NCC(=O)N[C@@H](CCCCN)C(=O)N[C@@H](Cc1ccccc1)C(=O)N[C@@H](C)C(=O)N[C@@H](CO)C(N)=O` [4c3b] (Ac-E[S5]HGE[S5]ANN[R8]ATKFLE[S5]IKGKFAS-NH2; staple 2-6, 10-17), in the series with rHRSV-mCherry, the EC50 turned out to be 39.9 ± 4.5 µM. Moreover, the “% helicity” value in series [2] is on record as 34.2%.

In the case of `CC[C@H](C)[C@H](NC(=O)[C@]1(C)CCCC=CCCCCCC[C@@](C)(NC(=O)[C@H](CCC(=O)O)NC(=O)[C@H](CC(N)=O)NC(=O)[C@H](C)NC(=O)[C@]2(C)CCCC=CCCC[C@@](C)(NC(=O)[C@H](Cc3ccccc3)NC(=O)[C@H](CCC(=O)O)NC(C)=O)C(=O)NCC(=O)N[C@@H](CCC(=O)O)C(=O)N2)C(=O)N[C@@H](C)C(=O)N[C@@H]([C@@H](C)O)C(=O)N[C@@H](CCCCN)C(=O)N[C@@H](Cc2ccccc2)C(=O)N[C@@H](CC(C)C)C(=O)N[C@@H](C)C(=O)N1)C(=O)N[C@@H](CCCCN)C(=O)NCC(=O)N[C@@H](CCCCN)C(=O)N[C@@H](Cc1ccccc1)C(=O)N[C@@H](C)C(=O)N[C@@H](CO)C(N)=O` [5b] (Ac-EF[R5]GE[S5]ANE[R8]ATKFLA[S5]IKGKFAS-NH2; staple 3-6, 10-17), in the series with HEp-2 cells, the “Toxicity for uninfected HEp-2 cells (cell viability)” value is recorded as “some toxicity”. In addition, the EC50 with rHRSV-mCherry was 16.9 ± 5.1 µM. Further, the “% helicity” value in series [2] is above 100%.

Turning to `CC[C@H](C)[C@H](NC(=O)[C@]1(C)CCCC=CCCCCCC[C@@](C)(NC(=O)[C@H](CC(N)=O)NC(=O)[C@H](CC(N)=O)NC(=O)[C@H](C)NC(=O)[C@]2(C)CCCC=CCCC[C@@](C)(NC(=O)[C@H](Cc3ccccc3)NC(=O)[C@H](CCC(=O)O)NC(C)=O)C(=O)NCC(=O)N[C@@H](CCC(=O)O)C(=O)N2)C(=O)N[C@@H](C)C(=O)N[C@@H]([C@@H](C)O)C(=O)N[C@@H](CCC(=O)O)C(=O)N[C@@H](Cc2ccccc2)C(=O)N[C@@H](CC(C)C)C(=O)N[C@@H](CCCCN)C(=O)N1)C(=O)N[C@@H](CCCCN)C(=O)NCC(=O)N[C@@H](CCCCN)C(=O)N[C@@H](Cc1ccccc1)C(=O)N[C@@H](C)C(=O)N[C@@H](CO)C(N)=O` [5c] (Ac-EF[R5]GE[S5]ANN[R8]ATEFLK[S5]IKGKFAS-NH2; staple 3-6, 10-17), the “Toxicity for uninfected HEp-2 cells (cell viability)” value in the series with HEp-2 cells is on record as “no toxicity”. For the same compound, the EC50 with rHRSV-mCherry amounted to 18.5 ± 10.6 µM. The “% helicity” value in series [2] is on record as 79.7%.
